Results on 1 molecule are retold here after patent US20140148498A1, “METHODS AND COMPOSITIONS FOR THE TREATMENT OF MARFAN SYNDROME AND ASSOCIATED DISORDERS” (THE JOHNS HOPKINS UNIVERSITY, priority 2011, published 2014).

Assay [1] has as its system p38. Put plainly: Western blot of proximal ascending aorta: p38 activation (Examples 4-5). Format: in vivo, mice. The text has this: All mice were cared for under strict compliance with the Animal Care and Use Committee of the Johns Hopkins University School of Medicine. The Fbn1^C1039G/+ and AT2KO lines were maintained n a pure C57BL/6 background (backcrossed for greater than 9 generations), allowing for valid comparisons. In order to further accommodate the potential for temporal- or background-specified variation, all comparisons were made between contemporary littermates when possible. The AT21C0 mice were obtained as a generous gift from Dr. Inagami (T. Ichiki et al., Nature 377, 748 (1995)). The Agtr2 gene resides on the X chromosome and therefore we used either male mice carrying the mutated allele (who are hemizygous) or homozygous females, both of which have been previously shown to be functionally null for the AT2 receptor (T. Ichiki et al., Nature 377, 748 (1995)). Mice were sacrificed with an inhalation overdose of halothane (Sigma-Aldrich, St. Louis). Mice underwent immediate laparotomy, descending abdominal aortic transection, and PBS (pH 7.4) was infused through the right and left ventricles to flush out the blood. Mice that were analyzed for Western Blot analysis had their proximal ascending aortas (root to right brachiocephalic trunk) immediately dissected out, flash frozen in liquid nitrogen and stored at −80d until further processing. Mice that were analyzed for aortic histology had latex injected under low pressure into the left ventricular apex until it was visible in the descending abdominal aorta. Mice that were analyzed for lung histology had their trachea intubated with a 20-gauge blunted needle, and 0.5% agar was infused under a low and constant pressure to gradually inflate the lungs. […]
Mouse aortic root and ascending aortas (aortic root excluding the aortic valve to origin of right brachiocephalic trunk) were harvested, snap-frozen in liquid nitrogen and stored at −80° C. until processed. […] Equal protein loading of samples was determined by a protein assay (BioRad, CA), and confirmed by probing with antibodies against β-Actin or GAPDH (Sigma, Mo.). […]
In general terms: A western blot detects proteins with antibodies after separation by electrophoresis.

The subject of assay [2] is Fbn1^C1039G/+ mice. Put plainly: Aortic root growth by echocardiography, 7 months of treatment (Examples 3-5). Format: in vivo. As to conditions: for Final absolute aortic root diameter: 7 months of treatment, mean +/- 2 SEM. The procedure: (§1) A head-to-head comparison of ACEi versus ARBs was performed. Fbn1^C1039G/+ mice and WT littermates were treated with hemodynamically equivalent doses (FIG. 8) of either the ACEi enalapril (10 to 15 mg/kg of body weight per day) or the ARB losartan (40 to 60 mg/kg per day) (R. D. Patten et al., Clin. Sci 104, 109 (2003)), beginning at 8 weeks of age, and were assessed with serial echocardiograms. […] It is noteworthy that losartan reduced aortic root growth in Fbn1^C1039G/+ mice, but had no effect in WT littermates (P=0.27). […] Whether AT2 signaling is needed to achieve losartan's full therapeutic benefit was assessed. AT2KO:Fbn1^C1039G/+ mice were treated with losartan from 8 weeks of age and followed by serial echocardiography until they were killed at 9 months of age (FIG. 2C).
All mice were cared for under strict compliance with the Animal Care and Use Committee of the Johns Hopkins University School of Medicine. The Fbn1^C1039G/+ and AT2KO lines were maintained n a pure C57BL/6 background (backcrossed for greater than 9 generations), allowing for valid comparisons. In order to further accommodate the potential for temporal- or background-specified variation, all comparisons were made between contemporary littermates when possible. The AT21C0 mice were obtained as a generous gift from Dr. Inagami (T. Ichiki et al., Nature 377, 748 (1995)). The Agtr2 gene resides on the X chromosome and therefore we used either male mice carrying the mutated allele (who are hemizygous) or homozygous females, both of which have been previously shown to be functionally null for the AT2 receptor (T. Ichiki et al., Nature 377, 748 (1995)). Mice were sacrificed with an inhalation overdose of halothane (Sigma-Aldrich, St. Louis). Mice underwent immediate laparotomy, descending abdominal aortic transection, and PBS (pH 7.4) was infused through the right and left ventricles to flush out the blood. Mice that were analyzed for Western Blot analysis had their proximal ascending aortas (root to right brachiocephalic trunk) immediately dissected out, flash frozen in liquid nitrogen and stored at −80d until further processing. Mice that were analyzed for aortic histology had latex injected under low pressure into the left ventricular apex until it was visible in the descending abdominal aorta. Mice that were analyzed for lung histology had their trachea intubated with a 20-gauge blunted needle, and 0.5% agar was infused under a low and constant pressure to gradually inflate the lungs. The trachea was then tied-off using vicryl and the needle was removed. Mice were fixed for 24 hours in 10% buffered formalin, after which the heart, aorta and lungs were removed and stored in 70% ethanol.
(§2) Mice were started on medication at 8 weeks of age and continued for 7 months. Losartan was dissolved in drinking water and filtered to reach a concentration of 0.6 g/L, giving an estimated daily dose of 40-60 mg/kg/day. Enalapril was dissolved in drinking water and filtered to reach a final concentration of 0.15 g/L, giving an estimated daily dose of 10-15 mg/kg/day. […] Spironolactone was dissolved in drinking water and filtered to give an estimated dose of 20 mg/kg/day, a dose previously shown to have in-vivo phenotypic benefit in cardiovascular disease states (S. Sakurabayashi-Kitade et al., Atherosclerosis 206, 54 (2009)). Placebo-treated animals received regular drinking water. Blood pressures were analyzed by taking 20 tail cuff blood pressures per day over 5 days in each mouse to habituate the mice to the tail cuff pressure system, and the blood pressures obtained on the last day were averaged. At least 4 mice for each treatment group were analyzed.
Nair hair removal cream was used on all mice the day prior to echocardiograms. All echocardiograms were performed on awake, unsedated mice using the Visualsonics Vevo 660 V1.3.6 imaging system and a 30 MHz transducer. Mice were imaged at baseline, 1 month after treatment and then every two months until the time of sacrifice. […]

For assay [3], the system named is AT2KO:Fbn1^C1039G/+ mice. Put plainly: Systolic blood pressure by tail cuff, MFS mice lacking AT2. Format: in vivo. As to conditions: AT2KO:Fbn1^C1039G/+ versus Fbn1^C1039G/+ mice, FIG. 8. As for the experimental part: as §2
For assay [4], the system named is WT mice. Kind of assay: Aortic root growth by echocardiography, 7 months of treatment, WT littermates. The format is in vivo. As for the experimental part: as §1, with “AT2KO:Fbn1^C1039G/+ mice were treated with losartan from 8 weeks of age and followed by serial echocardiography until they were killed at 9 months of age (FIG. 2C).” left out
All mice were cared for under strict compliance with the Animal Care and Use Committee of the Johns Hopkins University School of Medicine. […] Mice that were analyzed for Western Blot analysis had their proximal ascending aortas (root to right brachiocephalic trunk) immediately dissected out, flash frozen in liquid nitrogen and stored at −80d until further processing. Mice that were analyzed for aortic histology had latex injected under low pressure into the left ventricular apex until it was visible in the descending abdominal aorta. Mice that were analyzed for lung histology had their trachea intubated with a 20-gauge blunted needle, and 0.5% agar was infused under a low and constant pressure to gradually inflate the lungs. […]

“Also recorded” adds a separate entry of the source.

As for `CCCCc1nc(Cl)c(CO)n1Cc1ccc(-c2ccccc2-c2nn[nH]n2)cc1` [losartan], the p38 activation entry was “do not affect p38 activation; also recorded: neither had any effect” in assay [1] (Fbn1^C1039G/+ mice, FIG. 13) and “no significant change; also recorded: no significant difference” in assay [1] (treated AT2KO:Fbn1^C1039G/+ versus treated Fbn1^C1039G/+ mice, FIG. 14). The “Final absolute aortic root diameter” value is 1.96+/−0.09 mm in assay [2] (FIG. 2B); 1.96+/−0.09 mm in assay [2] (FIG. 2C); 1.77+/−0.15 mm in assay [4] (WT mice, 7 months of treatment, FIG. 2B, mean +/- 2 SEM). In addition, the “Aortic root growth over 7 months of treatment” value in assay [2] (versus placebo, drug in drinking water from 8 weeks of age) was “significant regression in growth; also recorded: regression in aortic size”; in assay [4] (WT littermates), “had no effect”. The Systolic blood pressure entry in assay [3] was “no difference in blood pressure between the groups; also recorded: lowered blood pressure equally”.
